Assay results published in patent US6462021B1, “Use of low molecular weight thrombin inhibitor” (AstraZeneca AB, priority 2000, dated 2002).

Key:
patients with NVAF [1] = experiment: Clinical dose-guiding study: warfarin management (INR by visit); assay type: in vivo, human
patients with NVAF [2] = experiment: Ongoing open label follow-up trials, 1 year on; assay type: in vivo
Excerpt: The duration of treatment was 12 weeks.

patients with NVAF [3] = experiment: Clinical dose-guiding study: stroke/TIA events; assay type: in vivo, human
Description: (§1) The tolerability of three different doses of X (20, 40, 60 mg p.o. b.i.d.) was compared with warfarin (aiming for an international normalisation ratio (INR) of 2 to 3) over 3 months' treatment in NVAF patients with moderately to high increased risk for stroke or systemic embolic events.
(§2) This was a multicentre, multinational, randomized, parallel group, dose-guiding study to compare the safety and tolerabilty of X with warfarin in stroke prophylaxis in patients with NVAF.
(§3) Patients were split into four groups: one group receiving 20 mg of X b.i.d, one given 40 (2×20) mg of X b.i.d, and one 60 (3×20) mg of X b.i.d. The fourth group received warfarin (open label, INR aiming for 2.0 to 3.0). All X medication was given double blind (i.e. neither doctor nor patient knew what tablet strength of X was given).
(§4) The duration of treatment was 12 weeks. […] The 40 mg b.i.d. dose was later reduced to 36 mg b.i.d. of X.

patients with NVAF [4] = experiment: Clinical dose-guiding study: safety and tolerability (discontinuations, bleeding, adverse events)
Description: as §1, §2, §3, §4

[5] = NVAF patients, 20, 40, 60 mg p.o. b.i.d.
Description: as §1, §3

[6] = warfarin group, 40 treatment years
[7] = X 36 mg b.i.d., 120 treatment years
[8] = X group, at 60 mg b.i.d., 12 weeks
[9] = X Dose 140 mg (so in the source) b.i.d., 12 weeks

CC(=O)CC(c1ccccc1)c1c(O)c2ccccc2oc1=O (centres unmarked) [Warfarin, warfarin]
Patients in INR Range 1.0-1.9 (number) (patients with NVAF [1]; Visit 1, Week 0, N 62): 34
Patients in INR Range 1.0-1.9 (percent) (patients with NVAF [1]; Visit 1, Week 0, N 62): 55%
Patients in INR Range 2.0-3.0 (number) (patients with NVAF [1]; Visit 1, Week 0, N 62): 21
Patients in INR Range 2.0-3.0 (percent) (patients with NVAF [1]; Visit 1, Week 0, N 62): 34%
Patients in INR Range >3.0 (number) (patients with NVAF [1]; Visit 1, Week 0, N 62): 7
Patients in INR Range >3.0 (percent) (patients with NVAF [1]; Visit 1, Week 0, N 62): 11%
Patients in INR Range 1.0-1.9 (number) (patients with NVAF [1]; Visit 3, Week 1, N 59): 22
Patients in INR Range 1.0-1.9 (percent) (patients with NVAF [1]; Visit 3, Week 1, N 59): 37%
Patients in INR Range 2.0-3.0 (number) (patients with NVAF [1]; Visit 3, Week 1, N 59): 25
Patients in INR Range 2.0-3.0 (percent) (patients with NVAF [1]; Visit 3, Week 1, N 59): 42%
Patients in INR Range >3.0 (number) (patients with NVAF [1]; Visit 3, Week 1, N 59): 12
Patients in INR Range >3.0 (percent) (patients with NVAF [1]; Visit 3, Week 1, N 59): 20%
Patients in INR Range 1.0-1.9 (number) (patients with NVAF [1]; Visit 4, Week 2, N 54): 15
Patients in INR Range 1.0-1.9 (percent) (patients with NVAF [1]; Visit 4, Week 2, N 54): 28%
Patients in INR Range 2.0-3.0 (number) (patients with NVAF [1]; Visit 4, Week 2, N 54): 26
Patients in INR Range 2.0-3.0 (percent) (patients with NVAF [1]; Visit 4, Week 2, N 54): 48%
Patients in INR Range >3.0 (number) (patients with NVAF [1]; Visit 4, Week 2, N 54): 13
Patients in INR Range >3.0 (percent) (patients with NVAF [1]; Visit 4, Week 2, N 54): 24%
Patients in INR Range 1.0-1.9 (number) (patients with NVAF [1]; Visit 5, Week 4, N 51): 17
Patients in INR Range 1.0-1.9 (percent) (patients with NVAF [1]; Visit 5, Week 4, N 51): 33%
Patients in INR Range 2.0-3.0 (number) (patients with NVAF [1]; Visit 5, Week 4, N 51): 22
Patients in INR Range 2.0-3.0 (percent) (patients with NVAF [1]; Visit 5, Week 4, N 51): 43%
Patients in INR Range >3.0 (number) (patients with NVAF [1]; Visit 5, Week 4, N 51): 12
Patients in INR Range >3.0 (percent) (patients with NVAF [1]; Visit 5, Week 4, N 51): 24%
Patients in INR Range 1.0-1.9 (number) (patients with NVAF [1]; Visit 6, Week 8, N 49): 15
Patients in INR Range 1.0-1.9 (percent) (patients with NVAF [1]; Visit 6, Week 8, N 49): 31%
Patients in INR Range 2.0-3.0 (number) (patients with NVAF [1]; Visit 6, Week 8, N 49): 25
Patients in INR Range 2.0-3.0 (percent) (patients with NVAF [1]; Visit 6, Week 8, N 49): 51%
Patients in INR Range >3.0 (number) (patients with NVAF [1]; Visit 6, Week 8, N 49): 9
Patients in INR Range >3.0 (percent) (patients with NVAF [1]; Visit 6, Week 8, N 49): 18%
Patients in INR Range 1.0-1.9 (number) (patients with NVAF [1]; Visit 7, Week 12, N 58): 18
Patients in INR Range 1.0-1.9 (percent) (patients with NVAF [1]; Visit 7, Week 12, N 58): 31%
Patients in INR Range 2.0-3.0 (number) (patients with NVAF [1]; Visit 7, Week 12, N 58): 33
Patients in INR Range 2.0-3.0 (percent) (patients with NVAF [1]; Visit 7, Week 12, N 58): 57%
Patients in INR Range >3.0 (number) (patients with NVAF [1]; Visit 7, Week 12, N 58): 7
Patients in INR Range >3.0 (percent) (patients with NVAF [1]; Visit 7, Week 12, N 58): 12%
TIAs (patients with NVAF [2]; [6]): 2
fatal strokes (patients with NVAF [2]; [6]): 2
major life-threatening bleeds (patients with NVAF [2]; [6]): 3
TIAs reported (patients with NVAF [3]; warfarin group, 12 weeks): two
Stroke/TIA event of individual patient (patients with NVAF [3]; warfarin group, 12 weeks, one line per patient (Pat. 120, 153)): TIA
Bleeding Events, category Major (patients with NVAF [4]; warfarin group, 12 weeks): 1
Bleeding Events, category Minor (patients with NVAF [4]; warfarin group, 12 weeks): 2
Bleeding Events, category Multiple Minor (patients with NVAF [4]; warfarin group, 12 weeks): 1
Bleeding Events, category None (patients) (patients with NVAF [4]; warfarin group, 12 weeks): 60
Bleeding Events, category Unspecified (patients with NVAF [4]; warfarin group, 12 weeks): 3
Number of Patients discontinued, reason Adverse Event (patients with NVAF [4]; warfarin group, 12 weeks): 4
Number of Patients discontinued, reason Calc. CrCl < 40 mL/min (patients with NVAF [4]; warfarin group, 12 weeks): 5
Number of Patients discontinued, reason Other (patients with NVAF [4]; warfarin group, 12 weeks): 3
Number of Patients discontinued, reason Withdrawn Consent (patients with NVAF [4]; warfarin group, 12 weeks): 1
Number of Patients, Total Discontinued (patients with NVAF [4]; warfarin group, 12 weeks): 13
Bleeding Events, category Major (patients with NVAF [4]; warfarin group, 12 weeks, listed as warfarin): only major bleed (genital tract) and one
Prematurely discont. (percent of patients) (patients with NVAF [4]; warfarin, INR aim 2.0-3.0, 12 weeks): (19%)
Prematurely discont. (number of patients) (patients with NVAF [4]; warfarin, INR aim 2.0-3.0, 12 weeks, 67 randomised): 13

CCOC(=O)CN[C@@H](C(=O)N1CC[C@H]1C(=O)NCc1ccc(/C(N)=N\O)cc1)C1CCCCC1 [X, EtO2C—CH2-(R)Cgl-Aze-Pab-OH]
pharmacokinetics, dose dependence [5]: dose proportional
TIAs (patients with NVAF [2]; [7]): 2
major bleeds (patients with NVAF [2]; [7]): no major bleeds
non-fatal strokes (patients with NVAF [2]; [7]): 2
Stroke/TIA event of individual patient (patients with NVAF [3]; X 60 mg b.i.d. group, 12 weeks, one line per patient (Pat. 121, 309)): Ischemic stroke and TIA
stroke rate (patients with NVAF [3]; X group, all doses combined, estimated 40 patient years of observation): 2.5%
TIA reported (patients with NVAF [3]; [8]): one
ischemic stroke reported (patients with NVAF [3]; [8]): one
Prematurely discont. (percent of patients) (patients with NVAF [4]; X 20 mg p.o. b.i.d., 12 weeks): (15%)
Prematurely discont. (number of patients) (patients with NVAF [4]; X 20 mg p.o. b.i.d., 12 weeks, 66 randomised): 10
Prematurely discont. (percent of patients) (patients with NVAF [4]; X 40 mg p.o. b.i.d., 12 weeks): (19%)
Prematurely discont. (number of patients) (patients with NVAF [4]; X 40 mg p.o. b.i.d., 12 weeks, 64 randomised): 12
onset pattern of bleeding (patients with NVAF [4]; X 60 mg b.i.d., similar pattern to warfarin): occurs early in the treatment period
Prematurely discont. (percent of patients) (patients with NVAF [4]; X 60 mg p.o. b.i.d., 12 weeks): (20%)
Prematurely discont. (number of patients) (patients with NVAF [4]; X 60 mg p.o. b.i.d., 12 weeks, 60 randomised): 12
Bleeding Events, category Major (patients with NVAF [4]; X Dose 20 mg b.i.d., 12 weeks): 0
Bleeding Events, category Minor (patients with NVAF [4]; X Dose 20 mg b.i.d., 12 weeks): 1
Bleeding Events, category Multiple Minor (patients with NVAF [4]; X Dose 20 mg b.i.d., 12 weeks): 2
Bleeding Events, category None (patients) (patients with NVAF [4]; X Dose 20 mg b.i.d., 12 weeks): 61
Bleeding Events, category Unspecified (patients with NVAF [4]; X Dose 20 mg b.i.d., 12 weeks): 2
Number of Patients discontinued, reason Adverse Event (patients with NVAF [4]; X Dose 20 mg b.i.d., 12 weeks): 6
Number of Patients discontinued, reason Calc. CrCl < 40 mL/min (patients with NVAF [4]; X Dose 20 mg b.i.d., 12 weeks): 4
Number of Patients discontinued, reason Other (patients with NVAF [4]; X Dose 20 mg b.i.d., 12 weeks): 0
Number of Patients, Total Discontinued (patients with NVAF [4]; X Dose 20 mg b.i.d., 12 weeks): 10
Bleeding Events, category Major (patients with NVAF [4]; X Dose 40 mg b.i.d., 12 weeks): 0
Bleeding Events, category Minor (patients with NVAF [4]; X Dose 40 mg b.i.d., 12 weeks): 0
Bleeding Events, category Multiple Minor (patients with NVAF [4]; X Dose 40 mg b.i.d., 12 weeks): 3
Bleeding Events, category None (patients) (patients with NVAF [4]; X Dose 40 mg b.i.d., 12 weeks): 57
Bleeding Events, category Unspecified (patients with NVAF [4]; X Dose 40 mg b.i.d., 12 weeks): 2
Bleeding Events, category Major (patients with NVAF [4]; X Dose 60 mg b.i.d., 12 weeks): 0
Bleeding Events, category Minor (patients with NVAF [4]; X Dose 60 mg b.i.d., 12 weeks): 3
Bleeding Events, category Multiple Minor (patients with NVAF [4]; X Dose 60 mg b.i.d., 12 weeks): 0
Bleeding Events, category None (patients) (patients with NVAF [4]; X Dose 60 mg b.i.d., 12 weeks): 52
Bleeding Events, category Unspecified (patients with NVAF [4]; X Dose 60 mg b.i.d., 12 weeks): 4
Number of Patients discontinued, reason Adverse Event (patients with NVAF [4]; X Dose 60 mg b.i.d., 12 weeks): 5
Number of Patients discontinued, reason Calc. CrCl < 40 mL/min (patients with NVAF [4]; X Dose 60 mg b.i.d., 12 weeks): 4
Number of Patients discontinued, reason Other (patients with NVAF [4]; X Dose 60 mg b.i.d., 12 weeks): 1
Number of Patients, Total Discontinued (patients with NVAF [4]; X Dose 60 mg b.i.d., 12 weeks): 12
Number of Patients discontinued, reason Adverse Event (patients with NVAF [4]; [9]): 3
Number of Patients discontinued, reason Calc. CrCl < 40 mL/min (patients with NVAF [4]; [9]): 5
Number of Patients discontinued, reason Other (patients with NVAF [4]; [9]): 1
Number of Patients, Total Discontinued (patients with NVAF [4]; [9]): 12
liver enzyme levels (patients with NVAF [4]; a few patients treated with X): asymptomatic increases
tolerability (patients with NVAF [4]; doses of up to 60 mg b.i.d. over 3 months): well tolerated
